Laboratory results from ChEMBL document CHEMBL5346939, “Targeting glutaminase 1 (GLS1) by small molecules for anticancer therapeutics” (Eur J Med Chem, 2023).
Values belong to the compound of their own block, whether it stands above or below them.

Experiments:
[1] = target: T1, Glutaminase kidney isoform, mitochondrial (Homo sapiens, UniProt O94925); test: Inhibition of C-terminal His-tagged human recombinant KGA transformed in Escherichia coli BL21 DE3 at pH 7.4 incubated for 3 hrs
T1 sequence (O94925 whole entry): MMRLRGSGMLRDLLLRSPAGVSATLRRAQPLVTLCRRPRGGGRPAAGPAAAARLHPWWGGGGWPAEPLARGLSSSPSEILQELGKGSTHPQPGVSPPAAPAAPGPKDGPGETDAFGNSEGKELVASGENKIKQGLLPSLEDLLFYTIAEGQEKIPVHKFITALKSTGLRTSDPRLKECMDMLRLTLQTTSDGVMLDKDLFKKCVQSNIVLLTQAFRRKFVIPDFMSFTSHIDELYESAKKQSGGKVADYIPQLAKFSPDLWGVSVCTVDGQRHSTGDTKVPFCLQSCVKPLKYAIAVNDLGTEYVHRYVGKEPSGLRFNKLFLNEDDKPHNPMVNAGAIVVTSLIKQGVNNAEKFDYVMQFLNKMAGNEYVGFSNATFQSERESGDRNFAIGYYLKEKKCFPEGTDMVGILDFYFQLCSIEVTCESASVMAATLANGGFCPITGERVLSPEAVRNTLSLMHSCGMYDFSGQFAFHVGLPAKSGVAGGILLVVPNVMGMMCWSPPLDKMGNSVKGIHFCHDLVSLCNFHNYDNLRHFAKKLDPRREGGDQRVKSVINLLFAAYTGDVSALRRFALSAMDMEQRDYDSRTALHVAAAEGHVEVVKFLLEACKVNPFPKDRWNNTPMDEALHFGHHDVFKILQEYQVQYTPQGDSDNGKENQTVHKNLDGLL

[2] = Inhibition of human recombinant Glutaminase
[3] = Inhibition of N-terminal 6His-tagged recombinant rat glutaminase expressed in Escherichia coli BL-21 DE3 measured after 20 mins by colorimetric analysis
SW1990 = test: Antiproliferative activity against human SW1990 cells assessed as reduction in cell viability measured after 72 hrs by CCK-8 assay; type: functional, cell-based; settings: SW1990, 72 h
[4] = Lipophilicity, logP of the compound at pH 7.4 by HPLC analysis; type: physicochemical; settings: buffer
[5] = Inhibition of 6His-tagged recombinant mouse GAC expressed in Escherichia coli preincubated for 10 mins and measured after 45 mins by chromatographic analysis
[6] = target: T1, Glutaminase kidney isoform, mitochondrial; test: Inhibition of N-terminal His-tagged GLS1 (unknown origin) expressed in Escherichia coli BL21 (DE3) preincubated for 20 mins and measured after 2 hrs
[7] = target: T1, Glutaminase kidney isoform, mitochondrial; test: Inhibition of full length C terminal His-tagged human KGA expressed in Escherichia coli BL-21 DE3
HCC1806 = test: Cytotoxicity against human HCC1806 cells assessed as reduction in cell viability measured after 48 hrs by MTT assay; type: functional, cell-based; settings: HCC1806, 48 h
[8] = Inhibition of N-terminal Histidine-tagged recombinant mouse GAC incubated for 1 hrs by fluorescence based analysis
[9] = Inhibition of full length C-terminal His-tagged rat Glutaminase expressed in Escherichia coli BL21 DE3 incubated for 12 hrs
[10] = Inhibition of human Glutaminase

Compound: CN(C)c1ccc(C2Nc3ccc4ccccc4c3C3=C2C(=O)CC(C)(C)C3)cc1Br (stereo not drawn)
IC50 [2]: ~9.3 µM

Compound: C=C1CC[C@]2(C(=O)O[C@@H]3O[C@H](CO[C@@H]4O[C@H](CO)[C@@H](O)[C@H](O)[C@H]4O)[C@@H](O)[C@H](O)[C@H]3O)CC[C@]3(C)C(=CCC4[C@@]5(C)CC[C@H](O[C@@H]6OC[C@H](O[C@@H]7OC[C@H](O)[C@H](O)[C@H]7O[C@@H]7O[C@@H](C)[C@H](O)[C@@H](O)[C@H]7O)[C@H](O)[C@H]6O)C(C)(C)C5CC[C@]43C)C2C1 (stereo partly drawn)
IC50 [7]: 6.1 µM
IC50 (HCC1806): 24.9 µM

Compound: CN(C)c1ccc(C2Nc3ccc4cc(C(C)(C)C)ccc4c3C3=C2C(=O)CC(C)(C)C3)cc1Br (stereo not drawn)
IC50 [8]: 4.5 µM

Compound: CC1(C)CCc2c(ccc3c2O[C@@H]2c4ccc(O)cc4O[C@H]3[C@H]2O)O1
IC50 [9]: 36.7 µM

Compound: CN1CCc2cccc3c2[C@H]1Cc1ccc(O)c(O)c1-3 [APOMORPHINE]
IC50 [10]: 0.6 µM

Compound: COc1ccc2c(c[n+](C)c3c4cc5c(cc4ccc23)OCO5)c1OC [CHELERYTHRINE CHLORIDE]
IC50 [10]: 0.03 µM

Compound: O=c1c2ccccc2[se]n1-c1ccccc1 [EBSELEN]
IC50 [10]: 0.009 µM

Further lines, results first:

IC50 [1]: 0.2 µM
Compound: O=c1c2ccccc2[se]n1CCCCCCn1[se]c2ccccc2c1=O

IC50 [3]: 3.3 µM
IC50 (SW1990): 35.3 µM
logP [4]: 3.73
Compound: O=C(Cc1ccccc1)Nc1nnc(CCSCCc2nnc(NC(=O)Cc3ccccc3)s2)s1

IC50 (SW1990): 13.1 µM
logP [4]: 2.72
Compound: O=C(Cc1cccc(OC(F)(F)F)c1)Nc1ccc(CCCCc2nnc(NC(=O)Cc3ccccn3)s2)nn1

IC50 [5]: ~50 µM
Compound: CN(C)c1ccc(C2Nc3ccc4ccccc4c3C3=C2C(=O)CC(C)(C)C3)cc1 (stereo not drawn)

IC50 [5]: ~20 µM
Compound: CC(C)c1ccc(C2Nc3ccc4ccccc4c3C3=C2C(=O)CC(C)(C)C3)cc1 (stereo not drawn)

IC50 [5]: ~10 µM
Compound: CC1(C)CC(=O)C2=C(C1)c1c(ccc3ccccc13)NC2c1ccc(C(C)(C)C)cc1 (stereo not drawn)

IC50 [6]: 0.1 µM
Compound: O=C(Cc1ccccc1)Nc1nnc([C@@H]2CCC[C@@H](c3nnc(NC(=O)Cc4ccccc4)s3)C2)s1
